Reference: US7674784B2, “Drug and food or drink for improving hyperglycemia” (Morinaga Milk Industry Co., Ltd., priority 2004, dated 2010)
Where a name gives a salt, the structure may show the parent alone.

Experiments:
Format in all cases: in vivo
[1] = test system: type-II diabetes model mice (db/db mice); assay: Test Example 3: effective concentration of 24-methylene-9,19-cyclolanostan-3-ol for hemoglobin Alc lowering, 40 days; conditions: for Hemoglobin Alc levels (%) 41st day from the administration: negative sample = 100; for lowering effect for the hemoglobin Alc levels in comparison with negative sample: 41st day
Description: The 24-methylene-9,19-cyclolanostan-3-ol produced in Preparation Example 1 mentioned above was used as a test sample 3.
In this test, 6-week old male db/db mice (purchased from Clea Japan, Inc.) were used as type-II diabetes model mice. These mice were divided into groups, each consisting of 7 animals. The test sample 3 was dissolved in DMSO, and the concentration of 24-methylene-9,19-cyclolanostan-3-ol was adjusted to 0.1 or 1 μg/ml with physiological saline. The final DMSO concentration was adjusted to 0.2%. […] The type-II diabetes model mice were administered with 1 mL of the test sample 3 solution of either concentration or negative sample solution once a day everyday with a sonde for 40 consecutive days. On the 41st day from the start of the repetitive administration, hemoglobin Alc levels were measured by using DCA 2000 (Bayer-Sankyo Co., Ltd.).

[2] = test system: type-II diabetes model mice (db/db mice); assay: Test Example 2: hemoglobin Alc lowering action compared with a clinical antidiabetic drug, 22 days; conditions: for Hemoglobin Alc levels (%) 23rd day from the administration: oral 1 mL once a day for 22 days, test samples 1 μg/mL, control sample 1 7.5 μg/mL pioglitazone hydrochloride, negative sample = 100
Description: This test was performed in order to compare the hemoglobin Alc lowering action of the compounds of the present invention with that of an antidiabetic drug used in the clinical practice.
The same test sample 1 (9,19-cyclolanostan-3-ol) and test sample 2 (24-methylene-9,19-cyclolanostan-3-ol) used in Test Example 1 were used.
As type-II diabetes model mice, 6-week old male db/db mice (purchased from Clea Japan, Inc.) were used. These mice were divided into groups, each consisting of 7 animals. Each test sample was dissolved in DMSO, and the concentration was adjusted to 1 μg/mL with physiological saline. The final DMSO concentration was adjusted to 0.2%. […] Further, as a control sample 1, ACTOS® tablets (Takeda Pharmaceutical Co., Ltd.) were ground in a mortar and dissolved in physiological saline so that the concentration of pioglitazone hydrochloride as the active ingredient should become 7.5 μg/mL. The type-II diabetes model mice were orally administered with 1 mL of each test sample solution, control sample 1 solution or negative sample solution once a day everyday with a sonde for 22 consecutive days. On the 23rd day from the start of the administration, hemoglobin Alc levels were measured by using DCA 2000 (Bayer-Sankyo Co., Ltd.).

[3] = test system: type-II diabetes model mice (db/db mice); assay: Test Example 4: random and fasting blood glucose levels during repetitive administration, 40 days; conditions: 1 mL once a day for 40 days, test samples 1 μg/mL, control sample 15 μg/ml; for changes over time in random blood glucose levels: FIG. 1; for changes over time in fasting blood glucose levels: after 15 hours of fasting, FIG. 2
Description: This test was performed in order to evaluate the hemoglobin Alc lowering action and hyperglycemia improving effect activity of compounds having the cyclolanostane skeleton.
The 9,19-cyclolanostan-3-ol and 24-methylene-9,19-cyclolanostan-3-ol produced in Preparation Example 1 mentioned above were used as test samples 1 and 2, respectively. Further, β-sitosterol (Tama Biochemical Co., Ltd.) was used as a control sample.
In this test, 6-week old male db/db mice (purchased from Clea Japan, Inc.) were used as type-II diabetes model mice. These mice were divided into groups, each consisting of 7 animals. Each sample was dissolved in DMSO, and the concentrations of 9,19-cyclolanostan-3-ol and […] were adjusted to 1 μg/mL with physiological saline to obtain test sample 1 solution and test sample 2 solution. Further, concentration of β-sitosterol was adjusted to 15 μg/ml in a similar manner to obtain a control sample solution. The final DMSO concentration was adjusted to 0.2%. […] The type-II diabetes model mice were administered with 1 mL of one of the test sample solutions, control sample solution and negative sample solution once a day everyday with a sonde for 40 consecutive days. Fasting blood glucose levels and random blood glucose levels were measured over time by using Antisense II (Bayer-Sankyo Co., Ltd.). The fasting blood glucose levels were measured after 15 hours of fasting.

[4] = test system: type-II diabetes model mice (db/db mice); assay: Test Example 1: hemoglobin Alc lowering action, repetitive administration for 45 days; conditions: for Hemoglobin Alc levels (%) 43rd day from the administration: 1 mL of 1 μg/mL once a day with a sonde, negative sample = 100; for lowering effect on hemoglobin Alc levels in comparison with negative sample: 43rd day, 1 mL of 1 μg/mL once a day
Description: This test was performed in order to determine the hemoglobin Alc lowering action of a compound having the cyclolanostane skeleton.
The 9,19-cyclolanostan-3-ol and 24-methylene-9,19-cyclolanostan-3-ol produced in Preparation Example 1 mentioned above were used as test samples 1 and 2, respectively.
As type-II diabetes model mice, 6-week old male db/db mice (purchased from Clea Japan, Inc.) were used in this test. These mice were divided into groups, each consisting of 7 animals. Each test sample was dissolved in DMSO, and the concentration was adjusted to 1 μg/mL with physiological saline. The final DMSO concentration was adjusted to 0.2%. […] The type-II diabetes model mice were administered with 1 mL of either of the test sample solutions or the negative sample solution once a day everyday with a sonde for 45 consecutive days. On the 43rd day of the repetitive administration, hemoglobin Alc levels were measured by using DCA 2000 (Bayer-Sankyo Co., Ltd.).

Molecule | Hemoglobin Alc levels (%) 41st day from the administration ([1]; 0.1 μg (1 mL of 0.1 μg/ml once a day, 40 days)) [%] | Hemoglobin Alc levels (%) 41st day from the administration ([1]; 1 μg (1 mL of 1 μg/ml once a day, 40 days)) [%] | lowering effect for the hemoglobin Alc levels in comparison with negative sample ([1]; dose of 0.1 μg/day) | lowering effect for the hemoglobin Alc levels in comparison with negative sample ([1]; dose of 1 μg/day) [%] | decreases in hemoglobin Alc levels in comparison with negative sample ([2]; 23rd day from the start of the administration) | Hemoglobin Alc levels (%) 23rd day from the administration [2] [%] | changes over time in random blood glucose levels [3] | changes over time in fasting blood glucose levels [3] | Hemoglobin Alc levels (%) 43rd day from the administration [4] [%] | lowering effect on hemoglobin Alc levels in comparison with negative sample [4] [%]
24-methylene-9,19-cyclolanostan-3-ol [Test sample 2] | 98.1 ± 22.3 | 81.6 ± 14.6 | about 1.9% | 18.4 | – | – | – | – | – | –
CCc1ccc(CCOc2ccc(CC3SC(=O)NC3=O)cc2)nc1 (stereo not drawn) [Control sample 1, pioglitazone hydrochloride, reference compound] | – | – | – | – | about 0.8% | 92.1 ± 0.2 | – | – | – | –
CC[C@H](CC[C@@H](C)[C@H]1CC[C@H]2[C@@H]3CC=C4C[C@@H](O)CC[C@]4(C)[C@H]3CC[C@]12C)C(C)C [Control sample, β-sitosterol, reference compound] | – | – | – | – | – | – | rapid increase were observed | rapid increase were observed | – | –
CC(C)CCCC(C)C1CCC2(C)C3CCC4C(C)(C)C(O)CCC45CC35CCC12C (stereo not drawn) [Test sample 1, 9,19-cyclolanostan-3-ol] | – | – | – | – | – | 85.4 ± 11.2 | effect of suppressing the increases in blood glucose levels was clearly observed | effect of suppressing the increases in blood glucose levels was clearly observed | 91.8 ± 19.6 | 8.2
C=C(CCC(C)C1CCC2(C)C3CCC4C(C)(C)C(O)CCC45CC35CCC12C)C(C)C (stereo not drawn) [Test sample 2, 24-methylene-9,19-cyclolanostan-3-ol] | – | – | – | – | – | 82.0 ± 7.9 | effect of suppressing the increases in blood glucose levels was clearly observed | effect of suppressing the increases in blood glucose levels was clearly observed | 85.6 ± 9.3 | 14.5
